Test results taken from US20240043386A1, “Modulators of the Cystic Fibrosis Transmembrane Conductance Regulator Protein and Methods of Use” (AbbVie Global Enterprises Ltd., priority 2021, published 2024).
Read-outs that look alike come from different tables or passages of the source.

Key:
[1] = biological target: T1, F508del/F508del CFTR (Homo sapiens, UniProt P13569, DEL508-508); test: Trans-Epithelial Current Clamp (TECC) assay using primary human bronchial epithelial cells; format: cell-based; conditions: for Emax (% Dual): maximum percent activity relative to positive control (co-corrector 0.15 μM + potentiator 0.45 μM = 100%), primary hBE cells F508del/F508del; for EC50: primary hBE cells homozygous F508del/F508del, test C2 corrector with co-corrector and potentiator, 18-24 hours at 37° C., equivalent CFTR current (IEQ)/AUC
T1 construct: cells isolated from CF patients with the homozygous mutation; endogenous in cells; host or cells: primary human bronchial epithelial (hBE) cells from CF patients homozygous for F508del
Summary of the method: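 Readout is the equivalent CFTR current (IEQ, from offset-corrected VT and RT) plus AUC from forskolin peak to bumetanide addition, recorded on TECC-24 at 36.5° C. Beforehand, homozygous F508del hBE cultures received correctors with co-corrector and potentiator basolaterally for 18-24 h at 37° C.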

[2] = biological target: T2, F508delCFTR (Homo sapiens, UniProt P13569, DEL508-508); test: Cell Surface Expression-Horse Radish Peroxidase (CSE-HRP) assay in CFBE41o-F508delCFTR-HRP cells; format: cell-based; conditions: for EC50: CFBE41o-F508delCFTR-HRP cells, 18-24 hours at 33° C., luminescence; for Maximum % activity (without co-corrector) / Maximum % activity (with co-corrector): normalized to on-plate positive control corrector (2 μM)
T2 construct: expressed in transfected cells; host or cells: CFBE41o- human lung-derived epithelial cell line, doxycycline-inducible expression
Summary of the method: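 Test compounds were tested alone or alongside a co-corrector (2 μM), 8-point 3-fold series from 20 or 30 μM, for 18–24 h at 33 °C on doxycycline-induced CFBE41o-F508delCFTR-HRP cells. After washing, luminol luminescence reported cell-surface HRP-tagged CFTR, normalized to the positive control (% activity). EC50 was fitted with a variable Hill slope sigmoid from triplicate plates; Z′ >0.5 required.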

[3] = with co-corrector (2 μM), read-out: EC50 (with co-corrector)
[4] = without co-corrector, read-out: EC50 (without co-corrector)

T2 sequence (P13569 with tags, fused parts or gaps DEL508-508): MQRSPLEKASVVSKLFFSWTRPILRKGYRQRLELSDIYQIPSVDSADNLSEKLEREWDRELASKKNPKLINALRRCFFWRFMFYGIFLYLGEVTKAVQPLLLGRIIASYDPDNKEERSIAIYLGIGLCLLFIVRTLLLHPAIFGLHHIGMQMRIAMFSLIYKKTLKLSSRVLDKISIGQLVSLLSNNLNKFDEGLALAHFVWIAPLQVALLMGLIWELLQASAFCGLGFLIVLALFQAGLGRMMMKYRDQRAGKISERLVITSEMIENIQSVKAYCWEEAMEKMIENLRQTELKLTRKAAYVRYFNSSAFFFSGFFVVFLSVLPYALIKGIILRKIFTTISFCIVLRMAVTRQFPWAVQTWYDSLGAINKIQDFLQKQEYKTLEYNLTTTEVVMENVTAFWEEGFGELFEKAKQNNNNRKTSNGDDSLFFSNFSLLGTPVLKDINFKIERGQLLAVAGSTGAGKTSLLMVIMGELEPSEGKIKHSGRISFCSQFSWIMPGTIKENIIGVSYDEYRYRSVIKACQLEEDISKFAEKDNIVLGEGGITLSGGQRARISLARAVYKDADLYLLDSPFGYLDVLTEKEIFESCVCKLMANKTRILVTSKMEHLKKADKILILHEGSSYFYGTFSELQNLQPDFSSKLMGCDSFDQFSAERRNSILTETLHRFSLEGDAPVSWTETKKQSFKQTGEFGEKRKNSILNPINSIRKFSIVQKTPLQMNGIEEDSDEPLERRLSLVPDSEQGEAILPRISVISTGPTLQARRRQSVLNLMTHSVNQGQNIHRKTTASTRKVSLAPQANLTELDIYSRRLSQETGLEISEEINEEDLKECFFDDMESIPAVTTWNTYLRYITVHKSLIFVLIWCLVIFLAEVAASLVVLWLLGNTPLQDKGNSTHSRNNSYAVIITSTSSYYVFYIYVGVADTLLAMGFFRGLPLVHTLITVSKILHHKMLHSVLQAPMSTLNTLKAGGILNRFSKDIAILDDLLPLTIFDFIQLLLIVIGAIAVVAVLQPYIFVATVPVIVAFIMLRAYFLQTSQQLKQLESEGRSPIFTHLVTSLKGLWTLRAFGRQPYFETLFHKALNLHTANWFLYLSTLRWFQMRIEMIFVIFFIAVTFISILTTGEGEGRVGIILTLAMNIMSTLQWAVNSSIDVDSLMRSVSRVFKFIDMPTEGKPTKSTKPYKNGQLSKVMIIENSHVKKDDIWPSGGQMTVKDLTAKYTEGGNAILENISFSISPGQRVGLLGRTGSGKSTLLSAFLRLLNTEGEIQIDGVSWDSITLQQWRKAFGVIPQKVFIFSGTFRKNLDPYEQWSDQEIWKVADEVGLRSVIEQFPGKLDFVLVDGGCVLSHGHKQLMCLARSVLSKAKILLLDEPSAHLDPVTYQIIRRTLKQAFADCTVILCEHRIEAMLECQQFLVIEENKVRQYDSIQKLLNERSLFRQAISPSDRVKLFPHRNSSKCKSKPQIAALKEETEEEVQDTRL
T1 sequence (P13569 with tags, fused parts or gaps DEL508-508): as above

SMILES	Emax (% Dual) [1]	EC50 [1]	EC50 [2, 3]	EC50 [2, 4]	Maximum % activity (without co-corrector) ([2]; without co-corrector)	Maximum % activity (with co-corrector) ([2]; with co-corrector (2 μM))	Maximum % activity (without co-corrector) ([2]; without co-corrector, 2 µM)
COc1ccc(C)cc1[C@@]1(C(=O)NS(=O)(=O)c2cccc3nc(C)ccc23)C[C@H]1c1ccc(C)cc1 (racemic) [Example 4, rac-(1r,2s)-1-(2-methoxy-5-methylphenyl)-2-(4-methylphenyl)-N-(2-methylquinoline-5-sulfonyl)cyclopropane-1-carboxamide]	417 % Dual	1.5 nM	421 nM	489 nM	944%		
COc1ncc([C@@H]2C[C@]2(C(=O)NS(=O)(=O)c2cccc3nc(C)ccc23)c2cc(C)ccc2OC)cn1 (racemic) [Example 36, rac-(1r,2s)-1-(2-methoxy-5-methylphenyl)-2-(2-methoxypyrimidin-5-yl)-N-(2-methylquinoline-5-sulfonyl)cyclopropane-1-carboxamide]	173 % Dual	> 300 nM	2480 nM	4320 nM	248%	666%	
CCOc1cnc([C@@H]2C[C@]2(C(=O)NS(=O)(=O)c2cccc3nc(C)ccc23)c2cc(C)ccc2OC)cn1 (racemic) [Example 62, rac-(1r,2r)-2-(5-ethoxypyrazin-2-yl)-1-(2-methoxy-5-methylphenyl)-N-(2-methylquinoline-5-sulfonyl)cyclopropane-1-carboxamide]	329 % Dual	261 nM	474 nM	990 nM	483%		
COc1ccc(C)cc1[C@]1(C(=O)NS(=O)(=O)c2cccc3nc(C)ccc23)C[C@@H]1c1cccnc1OC (single isomer, unassigned) [Example 50]	359 % Dual	5.2 nM	954 nM	2340 nM	951%		
COc1ccc(C)cc1[C@]1(C(=O)NS(=O)(=O)c2cccc3nc(C)ccc23)C[C@@H]1c1ccc(C)nc1 [Example 11, (1S,2R)-1-(2-methoxy-5-methylphenyl)-2-(6-methylpyridin-3-yl)-N-(2-methylquinoline-5-sulfonyl)cyclopropane-1-carboxamide]	214 % Dual	49 nM	2820 nM	4600 nM	679%		
COc1ccc(C)cc1[C@@]1(C(=O)NS(=O)(=O)c2cccc3nc(C)ccc23)C[C@H]1c1ccc(C(F)(F)F)cc1 (single isomer, unassigned) [Example 19]	215 % Dual	9.6 nM	588 nM	1010 nM			
COc1cccc([C@H]2C[C@@]2(C(=O)NS(=O)(=O)c2cccc3nc(C)ccc23)c2cc(C)ccc2OC)c1 (single isomer, unassigned) [Example 28]	304 % Dual	2.6 nM	417 nM	951 nM			
COc1ccc(C)cc1[C@]1(C(=O)NS(=O)(=O)c2cccc3nc(C)ccc23)C[C@@H]1c1ccc(C)nc1C [Example 81, (1S,2R)-2-(2,6-dimethylpyridin-3-yl)-1-(2-methoxy-5-methylphenyl)-N-(2-methylquinoline-5-sulfonyl)cyclopropane-1-carboxamide]	173 % Dual	94.4 nM	3980 nM	5780 nM	476%	876%	
COc1ccc([C@@H]2C[C@]2(C(=O)NS(=O)(=O)c2cccc3nc(C)ccc23)c2cc(C)ccc2OC)cc1 (single isomer, unassigned) [Example 16]	308 % Dual	8.4 nM	393 nM	328 nM			784%
COc1ccc(C)cc1[C@@]1(C(=O)NS(=O)(=O)c2cccc3nc(C)ccc23)C[C@H]1c1cccc(C(F)(F)F)c1 (single isomer, unassigned) [Example 24]	286 % Dual	2 nM	201 nM	583 nM			
COc1ccc(C)cc1[C@]1(C(=O)NS(=O)(=O)c2cccc3nc(C)ccc23)C[C@@H]1c1cccc(C(F)(F)F)c1 (racemic) [Example 12, rac-(1r,2s)-1-(2-methoxy-5-methylphenyl)-N-(2-methylquinoline-5-sulfonyl)-2-[3-(trifluoromethyl)phenyl]cyclopropane-1-carboxamide]	407 % Dual	0.51 nM	327 nM	479 nM			
CCOc1ccc([C@H]2C[C@@]2(C(=O)NS(=O)(=O)c2cccc3nc(C)ccc23)c2cc(C)ccc2OC)cn1 [Example 58, (1S,2R)-2-(6-ethoxypyridin-3-yl)-1-(2-methoxy-5-methylphenyl)-N-(2-methylquinoline-5-sulfonyl)cyclopropane-1-carboxamide]	246 % Dual	31.4 nM	2120 nM	3910 nM			
COc1ccc(C)cc1[C@]1(C(=O)NS(=O)(=O)c2cccc3nc(C)ccc23)C[C@@H]1c1cnc(C)cn1 (racemic) [Example 89, rac-(1r,2r)-1-(2-methoxy-5-methylphenyl)-2-(5-methylpyrazin-2-yl)-N-(2-methylquinoline-5-sulfonyl)cyclopropane-1-carboxamide]	322 % Dual	142 nM	1260 nM	2240 nM	447%	935%	
COc1nccc([C@@H]2C[C@]2(C(=O)NS(=O)(=O)c2cccc3nc(C)ccc23)c2cc(C)ccc2OC)n1 (single isomer, unassigned) [Example 99]	126 % Dual	> 1000 nM	2760 nM	3980 nM	180%	509%	
COc1cccc([C@H]2C[C@@]2(C(=O)NS(=O)(=O)c2cccc3nc(C)ccc23)c2cc(C)ccc2OC)n1 [Example 43, (1s,2s)-1-(2-methoxy-5-methylphenyl)-2-(6-methoxypyridin-2-yl)-N-(2-methylquinoline-5-sulfonyl)cyclopropane-1-carboxamide]	272 % Dual	2.9 nM	806 nM	2420 nM			
CCOc1nc(C2C[C@@]2(C(=O)NS(=O)(=O)c2cccc3nc(C)ccc23)c2cc(C)ccc2OC)ccc1F (stereo in doubt) [Example 106, (1S,2S)-2-(6-ethoxy-5-fluoropyridin-2-yl)-1-(2-methoxy-5-methylphenyl)-N-(2-methylquinoline-5-sulfonyl)cyclopropane-1-carboxamide]	188 % Dual	11.6 nM	222 nM				
COc1ccc(C)cc1[C@]1(C(=O)NS(=O)(=O)c2cccc3nc(C)ccc23)C[C@@H]1c1cncc(F)c1 (single isomer, unassigned) [Example 54]	355 % Dual	50.8 nM	2000 nM	2930 nM	890%		
COc1ccc(C)cc1[C@@]1(C(=O)NS(=O)(=O)c2cccc3nc(C)ccc23)C[C@H]1c1cncc(F)c1 (single isomer, unassigned) [Example 53]	169 % Dual	> 300 nM	2610 nM	3980 nM	229%	625%	
COc1cncc([C@@H]2C[C@]2(C(=O)NS(=O)(=O)c2cccc3nc(C)ccc23)c2cc(C)ccc2OC)c1 (racemic) [Example 41, rac-(1r,2s)-1-(2-methoxy-5-methylphenyl)-2-(5-methoxypyridin-3-yl)-N-(2-methylquinoline-5-sulfonyl)cyclopropane-1-carboxamide]	244 % Dual	110 nM	1770 nM	2980 nM	497%		
COc1ccc(C)cc1[C@@]1(C(=O)NS(=O)(=O)c2cccc3nc(C)ccc23)C[C@H]1c1ccccc1 (single isomer, unassigned) [Example 2]	250 % Dual	12.9 nM	497 nM	626 nM	523%		
COc1cncc([C@@H]2C[C@]2(C(=O)NS(=O)(=O)c2cccc3nc(C)ccc23)c2cc(C)ccc2OC)c1 (single isomer, unassigned) [Example 51]	135 % Dual	> 300 nM	4380 nM	5440 nM	108%	406%	
